Key:
Assay type in all cases: cell-based
Nrf2 target genes = test: Gene expression (RT-PCR) in cultured human astrocytes; conditions: 20 hours, increasing concentrations
Protocol: (§1) Human astrocytes from ScienCell (cat #1820) were grown in astrocyte medium per supplier's instructions. Cells cultured for no more than two passages were plated in 96-well plates at 40,000 cells per well for gene transcription experiments and 20,000 cell per well for glutathione and cytoprotection assays.
Primary cultures of human spinal cord astrocytes were treated with compound 3-Ent1 for 20 hours. The cells were then rinsed in PBS, lysed, and processed for RNA using Ambion Taqman™ Cells-to-CT kit. The resulting cDNA was stored at −20° C. until analysis by real-time polymerase chain reaction (RT-PCR). The cDNA mixture from Cells-to-CT was diluted 5x before loading into PCR. This yields results similar to using 6 ng of purified cDNA. RT-PCR was performed on Life Technologies QuantStudio platform using OpenArray technique according to manufacturer's protocol using the following Taqman primers: […]
The comparative CT method was used to calculate fold changes using ThermoFisher Cloud software for PCR analysis. Samples were compared to vehicle control.

human astrocytes [1] = test: Glutathione assay (GSH-Glo) in human astrocytes; conditions: 20-hr exposure (FIG. 2)
Protocol: as §1
Intracellular glutathione was measured after a 20-hr exposure to test compound 3-Ent1 by a two-step process. First, cells were lysed and luciferin quantitatively generated from substrate, catalyzed by glutathione-S-transferase in the presence of analyte glutathione. Then luciferin was assayed using stabilized luciferase to produce a luminescent signal proportional to the concentration of glutathione (Promega GSH-Glo, cat #V6912).

human astrocytes [2] = test: Cytoprotection of astrocytes against sodium arsenite; conditions: compound 20 hrs before 25 μM sodium arsenite, further 22 hrs (FIG. 3)
Protocol: as §1
Astrocytes were treated for 20 hrs as above, then the medium was removed and replaced with serum- and supplement-free growth medium with and without 25 μM sodium arsenite. After 22 hrs., cells were washed with PBS, fixed with 4% paraformaldehyde/4% sucrose in PBS, stained with 4′,6-Diamidino-2-phenylindole dihydrochloride (DAPI) and counted by quantitative fluorescence microscopy.

## CC1CCC2(C)C=C(C#N)C(=O)C(C)(C)C2O1 (single isomer, unassigned; ent1) [Compound 3-Ent1]
Nrf2 target genes; compared to vehicle control (FIG. 1A)
  transcription of GCLC: induces transcription
Nrf2 target genes; compared to vehicle control (FIG. 1B)
  transcription of HMOX1: induces transcription
Nrf2 target genes; compared to vehicle control (FIG. 1C)
  transcription of OSGIN1: induces transcription
Nrf2 target genes; compared to vehicle control (FIG. 1D)
  transcription of NQO1: induces transcription
Human astrocytes [1]
  intracellular glutathione: increases
Human astrocytes [2]
  protection from oxidative stress-induced cell death: protects cells
